Experimental data as given in US20140011773A1, “Pro-drug Compounds” (Proximagen Limited, priority 2012, published 2014).
Structures can show the parent of a compound that is named as a salt. Where two headings read alike, the source gives them in different places.

Key:
[1] = Pharmacokinetics: plasma levels after intravenous dosing to rats; type: in vivo; details: male, Sprague Dawley, rat, 0.95 mg/kg IV, read-out: Plasma level of Example 2
Description: (§1) Example prodrugs were dosed either intravenously or orally to fasted male Sprague Dawley rats. The rats underwent surgery for jugular vein cannulation 48 hrs prior to dosing. Following dosing, 0.25 mL blood samples were taken via the cannulae at 0, 5, 10, 20, 30, 45, 60, 120, 240 & 360 minutes in EDTA coated tubes. Tubes were spun at 13,000 rpm for 4 minutes and 100 ul of supernatant taken immediately and stored at −80° C. prior to analysis. Plasma samples were analysed by LC-MS/MS following extraction by protein precipitation, and levels of parent prodrug and tonabersat were measured by MRM (Multiple Reaction Monitoring) analysis against an extracted calibration curve of plasma samples spiked with the Example prodrug and tonabersat.
Example 2 was dosed according to this protocol at 0.95 mg/kg IV. […] Plasma levels of tonabersat were determined to be 130 ng/mL at 5 min and 115 ng/mL at 6 hrs clearly showing conversion of the prodrug to tonabersat over this timecourse following intravenous dosing.

[2] = Pharmacokinetics: plasma levels after oral dosing to rats; type: in vivo; details: male, Sprague Dawley, 6.1 mg/kg, rat, 6.10 mg/kg PO, read-out: Plasma level of Example 2
Description: as §1
Example 2 was dosed according to this protocol at 6.10 mg/kg PO. […] Plasma levels of tonabersat were determined to be 63 ng/mL at 5 min and 900 ng/mL at 6 hrs clearly showing conversion of the prodrug to tonabersat over this timecourse following oral dosing.

high K+ evoked CSD [3] = details: cats; cited from earlier work
high K+ evoked CSD [4] = details: rats; cited from earlier work
[5] = system: unique stereo-selective site in rat brains; details: rat brain; cited from earlier work
[6] = system: unique stereo-selective site in human brains; details: human brain; cited from earlier work

| concentration at 5 min ([1]; at 5 min) | concentration at 6 h ([1]; at 6 hrs) | concentration at 5 min ([2]; at 5 min) | concentration at 6 h ([2]; at 6 hrs) | Compound | inhibition of high K+ evoked CSD (high K+ evoked CSD [3]) | inhibition of high K+ evoked CSD (high K+ evoked CSD [4]) | binding affinity [5] | binding affinity [6] |
| --- | --- | --- | --- | --- | --- | --- | --- | --- |
| 0.73 µg/mL | < 0.005 µg/mL | 0.038 µg/mL | < 0.005 µg/mL | CC(=O)c1ccc2c(c1)[C@H](NC(=O)c1ccc(F)c(Cl)c1)[C@H](OC(=O)CN(C)C)C(C)(C)O2 [Example 2, (3S,4S)-6-Acetyl-4-[(3-chloro-4-fluorobenzene)amido]-2,2-dimethyl-3,4-dihydro-2H-1-benzopyran-3-yl 2-(dimethylamino)acetate hydrochloride] | – | – | – | – |
| – | – | – | – | CC(=O)c1ccc2c(c1)[C@H](NC(=O)c1ccc(F)c(Cl)c1)[C@H](O)C(C)(C)O2 [Tonabersat] | inhibits high K+ evoked CSD | inhibits high K+ evoked CSD | binds selectively and with high affinity | binds selectively and with high affinity |
